Legend:
Test in all cases: Greenhouse post-emergence herbicidal test
Format in all cases: in vivo
[1] = test system: ERICA (Erigeron canadensis)
Experimental: (§1) The culture containers used were plastic pots containing loamy sand with approximately 2-3.0% of organic matter. The seeds of the test plants were sown separately for each species.
(§2) For the post-emergence treatment, the test plants were grown to a plant height of from 3 to 15 cm, depending on the plant habit, and only then treated with the active compounds which had been suspended or emulsified in water. To this end, the test plants were either sown directly, and grown in the same containers, or they were first grown separately as seedlings and transplanted into the test containers a few days prior to treatment.
(§3) Depending on the species, the plants were kept at 10-25° C. and 20-35° C., respectively.
(§4) The test period extended over 2 to 4 weeks. During this time, the plants were tended and their response to the individual treatments was evaluated.
(§5) Evaluation was carried out using a scale from 0 to 100. 100 means no emergence of the plants, or complete destruction of at least the above-ground parts, and 0 means no damage or normal course of growth. A good herbicidal activity is given at values of at least 70, and very good herbicidal activity is given at values of at least 85.
(§6) In the examples below, using the method of S. R. Colby (1967) “Calculating synergistic and antagonistic responses of herbicide combinations”, Weeds 15, p. 22ff., the value E, which is expected if the activity of the individual active compounds is only additive, was calculated.
(§7) where • X=percent activity using active compound A at an application rate a; • Y=percent activity using active compound B at an application rate b; • E=expected activity (in %) by A+B at application rates a+b.
(§8) If the value found experimentally is higher than the value E calculated according to Colby, a synergistic effect is present.
(§9) For preparation of the mixtures herbicides A were used in form of an aqueous solution comprising 22.5% by weight of the respective herbicide A. The herbicides B were used in form of the respective commercially available formulations as identified below. If appropriate, the adjuvant DASH® HC was added to the mixtures.
(§10) The respective mixtures of active ingredients were introduced into the spray liquor used for applying the active compound. In the examples, the solvent used was water.

[2] = test system: AMBEL (Ambrosia artemisiifolia)
Experimental: as §1, §2, §3, §4, §5, §6, §7, §8, §9, §10

[3] = test system: POLPE (Polygonum persicaria)
Experimental: as §1, §2, §3, §4, §5, §6, §7, §8, §9, §10

[4] = test system: ABUTH (Abutilon theophrasti)
Experimental: as §1, §2, §3, §4, §5, §6, §7, §8, §9, §10

[5] = test system: DIGSA (Digitaria sanguinales)
Experimental: as §1, §2, §3, §4, §5, §6, §7, §8, §9, §10

[6] = test system: BRAPP (Urochloa platyphylla)
Experimental: as §1, §2, §3, §4, §5, §6, §7, §8, §9, §10

[7] = test system: PANMI (Panicum miliaceum L.)
Experimental: as §1, §2, §3, §4, §5, §6, §7, §8, §9, §10

[8] = test system: CHEAL (Chenopodium album)
Experimental: as §1, §2, §3, §4, §5, §6, §7, §8, §9, §10

[9] = test system: COMBE (Commelina benghalensis)
Experimental: as §1, §2, §3, §4, §5, §6, §7, §8, §9, §10

[10] = test system: AMARE (Amaranthus retroflexus)
Experimental: as §1, §2, §3, §4, §5, §6, §7, §8, §9, §10

SETFA (Setaria faberi) = test system: SETFA (Setaria faberi)
Experimental: as §1, §2, §3, §4, §5, §6, §7, §8, §9, §10

[11] = Example 1, post-emergence, B.17 62.5 g/ha a.i.
[12] = Example 2, post-emergence; a1) 62.5 g/ha a.i.
[13] = Example 4, post-emergence; a1) 125 g/ha a.i.
[14] = Example 1, post-emergence; a1) 125 g/ha a.i.
[15] = Example 5, post-emergence; a1) 31.25 g/ha a.i.
[16] = Example 4, post-emergence, B.30 12.5 g/ha a.i.
[17] = Example 2, post-emergence, B.49 75 g/ha a.i.
[18] = Example 5, post-emergence, B.55 2.5 g/ha a.i.

CC(C)N1C(=O)c2ccccc2NS1(=O)=O [B.17, bentazone]
herbicidal activity against ERICA found [1, 11]: 70%
herbicidal activity against AMBEL found [2, 11]: 30%
herbicidal activity against POLPE found [3, 11]: 55%
herbicidal activity against ABUTH found [4, 11]: 40%

COCc1cnc(C2=NC(C)(C(C)C)C(=O)N2)c(C(=O)O)c1 (stereo not shown) [B.3, imazamox]
herbicidal activity against ERICA found ([1]; Example 3, post-emergence, heading: +1% by weight DASH HC, B.3 9 g/ha a.i.): 90%

C/C=C1/CC2=C(C(=O)OC2=O)[C@H](CCC)[C@H](O)C(=O)C[C@@H]1O [a1), cornexistin]
herbicidal activity against DIGSA found [5, 12]: 55%
herbicidal activity against BRAPP found [6, 13]: 50%
herbicidal activity against PANMI found [7, 12]: 80%
herbicidal activity against ERICA found [1, 14]: 40%
herbicidal activity against ERICA found ([1]; Example 3, post-emergence, heading: +1% by weight DASH HC; a1) 62.5 g/ha a.i.): 60%
herbicidal activity against CHEAL found [8, 12]: 90%
herbicidal activity against CHEAL found [8, 15]: 70%
herbicidal activity against COMBE found [9, 13]: 55%
herbicidal activity against AMBEL found [2, 14]: 65%
herbicidal activity against AMBEL found [2, 15]: 80%
herbicidal activity against AMARE found [10, 12]: 50%
herbicidal activity against POLPE found [3, 14]: 60%
herbicidal activity against ABUTH found [4, 14]: 50%
herbicidal activity against SETFA found (SETFA (Setaria faberi); [13]): 80%

Cn1nc(C(F)(F)F)c(CS(=O)(=O)C2=NOC(C)(C)C2)c1OC(F)F [B.30, pyroxasulfone]
herbicidal activity against BRAPP found [6, 16]: 50%
herbicidal activity against COMBE found [9, 16]: 45%
herbicidal activity against SETFA found (SETFA (Setaria faberi); [16]): 40%

CCc1cccc(CC)c1N(COC)C(=O)CCl [B.49, alachlor]
herbicidal activity against DIGSA found [5, 17]: 40%
herbicidal activity against PANMI found [7, 17]: 45%
herbicidal activity against CHEAL found [8, 17]: 0%
herbicidal activity against AMARE found [10, 17]: 30%

COC(=O)c1ccccc1S(=O)(=O)NC(=O)Nc1nc(C)nc(OC)n1 [B.55, metsulfuron-methyl]
herbicidal activity against CHEAL found [8, 18]: 40%
herbicidal activity against AMBEL found [2, 18]: 75%

From US20150335016A1, “Herbicidal Composition Comprising a Cornexistin” (BASF SE, priority 2012, published 2015)
